The record followed here is patent US20250171438A1 (Agios Pharmaceuticals, Inc., priority 2022, published 2025).

Where two headings read alike, the source gives them in different places.

The target of this experiment is T1, human PAH with the R408W mutation (Homo sapiens, UniProt P00439, R408W).
T1 construct: expressed in transfected cells
T1 sequence (P00439 1-452 R408W): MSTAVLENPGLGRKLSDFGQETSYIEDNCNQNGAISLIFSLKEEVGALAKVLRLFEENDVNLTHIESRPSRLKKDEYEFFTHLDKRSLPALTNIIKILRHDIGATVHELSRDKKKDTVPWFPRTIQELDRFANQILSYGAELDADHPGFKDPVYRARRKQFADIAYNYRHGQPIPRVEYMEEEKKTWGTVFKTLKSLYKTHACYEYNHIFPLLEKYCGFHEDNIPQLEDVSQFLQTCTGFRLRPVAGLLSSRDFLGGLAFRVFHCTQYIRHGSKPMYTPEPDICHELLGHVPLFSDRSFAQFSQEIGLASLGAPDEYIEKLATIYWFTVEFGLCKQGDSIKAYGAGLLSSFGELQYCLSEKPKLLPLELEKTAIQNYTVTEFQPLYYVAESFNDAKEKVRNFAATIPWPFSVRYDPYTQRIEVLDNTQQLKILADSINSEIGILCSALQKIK
In words: Cell Based Phenylalanine Flux Assay. The settings on record: A375 cells expressing human R408W PAH, 13C-Tyrosine by LC-MS, average where tested multiple times, read-out: AC50.

With `O=C(c1cnn2cc(Cl)ccc12)N1CCc2[nH]cnc2C1c1nc2ccc(Br)cc2[nH]1` (stereo not shown), for the setting “24 hrs with compound”, the AC50 (as a rule, the concentration at which the activity in the assay is half-maximal) is more than 5000 nM.

Take `O=C(c1nc2c(F)cccc2s1)N1CCc2[nH]cnc2[C@@H]1c1nc2ccccc2s1` [Example 1091, (R)-(4-(benzo[d]thiazol-2-yl)-6,7-dihydro-1H-imidazo[4,5-c]pyridin-5(4H)-yl)(4-fluorobenzo[d]thiazol-2-yl)methanone]: for the setting “24 hrs compound incubation”, the AC50 was more than 5000 nM.

Regarding `CC(C)(O)c1nc(Br)c(C(=O)N2CCc3[nH]cnc3[C@H]2c2nc3c(F)cccc3s2)o1` [Example 1897, (S)-(4-bromo-2-(2-hydroxypropan-2-yl)oxazol-5-yl)(4-(4-fluorobenzo[d]thiazol-2-yl)-6,7-dihydro-1H-imidazo[4,5-c]pyridin-5(4H)-yl)methanone], the concentration at half-maximal activity (AC50) (24 hrs compound incubation) was less than 500 nM.

Turning to `Cc1ocnc1CC(=O)N1CCc2[nH]cnc2[C@H]1c1nc2ccccc2s1` [Example 1531], the AC50 (24 hrs compound incubation) was less than 500 nM.

Turning to `CC1CN(C(=O)c2cnco2)C(c2nc3c(F)cccc3s2)c2nc[nH]c21` (stereo not shown), under “24 hrs with compound”, the AC50 is more than 5000 nM.

Regarding `c1ccc2oc(N3CCc4[nH]cnc4C3c3nc4ccccc4s3)nc2c1` (stereo not shown), the half-maximal activity concentration (AC50) (24 hrs with compound) is more than 5000 nM.

Regarding `O=C(CC1CC1)N1CCc2[nH]cnc2[C@H]1c1nc2ccc(Br)cc2s1` [Example 1148, (S)-1-(4-(6-bromobenzo[d]thiazol-2-yl)-6,7-dihydro-1H-imidazo[4,5-c]pyridin-5(4H)-yl)-2-cyclopropylethanone], the AC50 (24 hrs compound incubation) is less than 500 nM.

On to `Nc1cnc(N2CCc3[nH]cnc3[C@@H]2c2nc3ccccc3s2)nc1` (single isomer, unassigned) [Example 1467], for which, under “24 hrs compound incubation”, the AC50 was in the range of 1000 to 5000 nM.

In the case of `Cc1nc(Br)c(C(=O)N2CCc3[nH]cnc3[C@H]2c2nc3c(F)cccc3s2)o1` [Example 1760], for the setting “24 hrs compound incubation”, the half-maximal activity concentration (AC50) was less than 500 nM.

On to `CC(C)(O)c1nc(C2CC2)c(C(=O)N2CCc3[nH]cnc3[C@H]2c2nc3c(F)cccc3s2)o1` [Example 1537, (S)-(4-cyclopropyl-2-(2-hydroxypropan-2-yl)oxazol-5-yl)(4-(4-fluorobenzo[d]thiazol-2-yl)-6,7-dihydro-1H-imidazo[4,5-c]pyridin-5(4H)-yl)methanone], for which, for the setting “24 hrs compound incubation”, the AC50 is less than 500 nM.

With `Cc1nc(C(C)(C)C)oc1C(=O)N1CCc2[nH]cnc2[C@H]1c1nc2c(F)cccc2s1` [Example 1433], the AC50 (24 hrs compound incubation) fell in the range of 500 to 1000 nM.

Turning to `O=C(c1nnc(CCN2CC(F)C2)o1)N1CCc2[nH]cnc2C1c1nc2ccccc2s1` (stereo not shown), where the note is “24 hrs with compound”, the AC50 was more than 5000 nM.

With `O=C(c1nnc(OCCC(F)(F)F)o1)N1CCc2[nH]cnc2[C@H]1c1nc2ccccc2s1` [Example 1790], the AC50 (24 hrs compound incubation) was 500 to 1000 nM.

In the case of `O=C(c1oc(NC2CC2)nc1C(F)(F)F)N1CCc2[nH]cnc2[C@@H]1c1nc2c(F)cccc2s1` [Example 1596, (R)-(2-(cyclopropylamino)-4-(trifluoromethyl)oxazol-5-yl)(4-(4-fluorobenzo[d]thiazol-2-yl)-6,7-dihydro-1H-imidazo[4,5-c]pyridin-5(4H)-yl)methanone], where the note is “24 hrs compound incubation”, the AC50 was less than 500 nM.

Consider `C[C@H]1CN(C(=O)c2nnc(-c3cnn(C)c3)o2)[C@H](c2nc3ccccc3s2)c2nc[nH]c21` [Example 1752, ((4S,7S)-4-(benzo[d]thiazol-2-yl)-7-methyl-6,7-dihydro-1H-imidazo[4,5-c]pyridin-5(4H)-yl)(5-(1-methyl-1H-pyrazol-4-yl)-1,3,4-oxadiazol-2-yl)methanone], for which, under “24 hrs compound incubation”, the AC50 was 500 to 1000 nM.

Consider `O=C(c1ocnc1C(F)(F)F)N1CCc2[nH]cnc2[C@H]1c1nc2ccccc2s1` [Example 1325], for which the half-maximal activity concentration (AC50) (24 hrs compound incubation) was less than 500 nM.

For the compound `O=C(c1nc2ccccc2s1)N1CCc2nc[nH]c2C1c1nc2ccc(Br)cc2s1` (stereo not shown), the concentration at half-maximal activity (AC50) (24 hrs with compound) is more than 5000 nM.

For `Cc1c(-c2ncc(C(=O)N3CCc4[nH]cnc4[C@H]3c3nc4ccccc4s3)o2)cnn1C` [Example 1383], the AC50 (24 hrs compound incubation) is less than 500 nM.

For `N#Cc1ccn2ncc(C(=O)N3CCc4[nH]cnc4C3c3nc4ccc(Br)cc4[nH]3)c2c1` (stereo not shown), the AC50 (24 hrs with compound) was in the range of 1000 to 5000 nM.

`Nc1nc(C(F)(F)F)c(C(=O)N2CCc3[nH]cnc3[C@H]2c2nc3ccccc3s2)o1` [Example 1533]: the AC50 (24 hrs compound incubation) was less than 500 nM.

In the case of `Cn1nc(C(C)(C)C#N)nc1C(=O)N1CCc2[nH]cnc2[C@H]1c1nc2c(F)cccc2s1` [Example 2047, (S)-2-(5-(4-(4-fluorobenzo[d]thiazol-2-yl)-4,5,6,7-tetrahydro-1H-imidazo[4,5-c]pyridine-5-carbonyl)-1-methyl-1H-1,2,4-triazol-3-yl)-2-methylpropanenitrile], under “24 hrs compound incubation”, the half-maximal activity concentration (AC50) was in the range of 500 to 1000 nM.

For the compound `O=C(c1nnc(-c2cnn(S(=O)(=O)C3CC3)c2)o1)N1CCc2[nH]cnc2[C@H]1c1nc2ccccc2s1` [Example 1939], the AC50 (24 hrs compound incubation) lay within 500 to 1000 nM.

Take `O=C(c1cnco1)N1CC2(CC2)c2[nH]cnc2C1c1nc2c(F)cccc2s1` (stereo not shown): the AC50 (24 hrs with compound) lay within 1000 to 5000 nM.

Consider `Cc1nnc(CCC(=O)N2CCc3[nH]cnc3C2c2nc3ccccc3s2)o1` (stereo not shown), for which the AC50 (24 hrs with compound) is 1000 to 5000 nM.

For `O=C(c1cnn(C2CC2)c1Cl)N1CCc2[nH]cnc2[C@H]1c1nc2c(F)cccc2s1` [Example 1969], the AC50 (24 hrs compound incubation) was in the range of 500 to 1000 nM.

Regarding `O=C(CCc1nccs1)N1CCc2[nH]cnc2[C@@H]1c1nc2cccc(Br)c2s1` [Example 1122, (R)-1-(4-(7-bromobenzo[d]thiazol-2-yl)-6,7-dihydro-1H-imidazo[4,5-c]pyridin-5(4H)-yl)-3-(thiazol-2-yl)propan-1-one], for the setting “24 hrs compound incubation”, the AC50 was 1000 to 5000 nM.

Regarding `O=C(c1cnc(-c2ccnc(C(F)(F)F)c2)s1)N1CCc2[nH]cnc2[C@@H]1c1nc2ccccc2s1` [Example 1404, (R)-(4-(benzo[d]thiazol-2-yl)-6,7-dihydro-1H-imidazo[4,5-c]pyridin-5(4H)-yl)(2-(2-(trifluoromethyl)pyridin-4-yl)thiazol-5-yl)methanone], the AC50 (24 hrs compound incubation) lay in the range of 1000 to 5000 nM.

Regarding `CC(C)(O)Cn1cc(C(=O)N2CCc3[nH]cnc3[C@@H]2c2nc3c(F)cccc3s2)c(Cl)n1` [Example 1993, (R)-(3-chloro-1-(2-hydroxy-2-methylpropyl)-1H-pyrazol-4-yl)(4-(4-fluorobenzo[d]thiazol-2-yl)-6,7-dihydro-1H-imidazo[4,5-c]pyridin-5(4H)-yl)methanone], the concentration at half-maximal activity (AC50) (24 hrs compound incubation) lay in the range of 1000 to 5000 nM.

On to `O=C(CCC1CC1)N1CCc2[nH]cnc2[C@H]1c1nc2cccc(F)c2s1` [Example 1133, (S)-3-cyclopropyl-1-(4-(7-fluorobenzo[d]thiazol-2-yl)-6,7-dihydro-1H-imidazo[4,5-c]pyridin-5(4H)-yl)propan-1-one], for which the AC50 (24 hrs compound incubation) lay within 500 to 1000 nM.

Take `O=C(c1nnc(-c2ccc(C(F)(F)F)cc2)o1)N1CCc2[nH]cnc2C1c1nc2c(F)cccc2s1` (stereo not shown): the AC50 (24 hrs with compound) fell in the range of 1000 to 5000 nM.

As to `Cc1ncoc1C(=O)N1C[C@H](C)c2[nH]cnc2[C@H]1c1nc2ccccc2s1` [Example 1546, ((4S,7S)-4-(benzo[d]thiazol-2-yl)-7-methyl-1,4,6,7-tetrahydro-5H-imidazo[4,5-c]pyridin-5-yl)(4-methyloxazol-5-yl)methanone], for the setting “24 hrs compound incubation”, the AC50 fell in the range of 500 to 1000 nM.

As to `O=C(CCc1cccs1)N1CCc2[nH]cnc2C1c1nc2ccccc2[nH]1` (stereo not shown), the AC50 (24 hrs with compound) was in the range of 1000 to 5000 nM.

For the compound `Cn1nccc1C(=O)N1CCc2[nH]cnc2[C@@H]1c1nc2c(C(F)(F)F)cccc2s1` [Example 2112, (R)-(1-methyl-1H-pyrazol-5-yl)(4-(4-(trifluoromethyl)benzo[d]thiazol-2-yl)-6,7-dihydro-1H-imidazo[4,5-c]pyridin-5(4H)-yl)methanone], the AC50 (24 hrs compound incubation) was in the range of 1000 to 5000 nM.

`CN1CCN(c2nc(C(F)F)c(C(=O)N3CCc4[nH]cnc4[C@H]3c3nc4c(F)cccc4s3)o2)CC1` [Example 2023, (S)-(4-(difluoromethyl)-2-(4-methylpiperazin-1-yl)oxazol-5-yl)(4-(4-fluorobenzo[d]thiazol-2-yl)-6,7-dihydro-1H-imidazo[4,5-c]pyridin-5(4H)-yl)methanone]: the AC50 (24 hrs compound incubation) was less than 500 nM.

In the case of `Cc1noc(C(=O)N2CCc3[nH]cnc3C2c2nc3ccccc3s2)n1` (stereo not shown), the AC50 (24 hrs with compound) is 1000 to 5000 nM.

As to `Cc1nc(C(=O)N2CCc3[nH]cnc3C2c2nc3ccccc3s2)n(C)n1` (stereo not shown), for the setting “24 hrs with compound”, the AC50 lay in the range of 1000 to 5000 nM.

Turning to “(R)-2-((4-(6-bromo-1H-benzo[d]imidazol-2-yl)-6,7-dihydro-1H-imidazo[4,5-c]pyridin-5(4H)-yl)methyl)thiazole [Example 968]”, where the note is “24 hrs compound incubation”, the AC50 lay in the range of 1000 to 5000 nM.

As to `O=C(c1cn(CC2CC2)nc1Cl)N1CCc2[nH]cnc2[C@H]1c1nc2c(F)cccc2s1` [Example 1983, (S)-(3-chloro-1-(cyclopropylmethyl)-1H-pyrazol-4-yl)(4-(4-fluorobenzo[d]thiazol-2-yl)-6,7-dihydro-1H-imidazo[4,5-c]pyridin-5(4H)-yl)methanone], the AC50 (24 hrs compound incubation) was less than 500 nM.

As to `O=C(c1cnc(-c2ccc(C(F)(F)F)cn2)s1)N1CCc2[nH]cnc2[C@H]1c1nc2ccccc2s1` [Example 1349], the AC50 (24 hrs compound incubation) is 1000 to 5000 nM.

For `O=C(C1CN(c2ncccc2F)C1)N1CCc2[nH]cnc2[C@H]1c1nc2ccccc2s1` [Example 1909], the AC50 (24 hrs compound incubation) was in the range of 500 to 1000 nM.

`O=C(c1cnn2cc(C3CC3)ccc12)N1CCc2[nH]cnc2[C@@H]1c1nc2ccccc2s1` [Example 1192, (R)-(4-(benzo[d]thiazol-2-yl)-6,7-dihydro-1H-imidazo[4,5-c]pyridin-5(4H)-yl)(6-cyclopropylpyrazolo[1,5-a]pyridin-3-yl)methanone]: where the note is “24 hrs compound incubation”, the half-maximal activity concentration (AC50) lay in the range of 1000 to 5000 nM.

`CC(C)(O)c1cccc2c(C(=O)N3CCc4[nH]cnc4[C@H]3c3nc4ccccc4s3)cnn12` [Example 1481]: for the setting “24 hrs compound incubation”, the half-maximal activity concentration (AC50) was less than 500 nM.

Regarding `Cc1nn(C)cc1-c1ncc(C(=O)N2CCc3[nH]cnc3[C@H]2c2nc3ccccc3s2)o1` [Example 1381], the AC50 (24 hrs compound incubation) is less than 500 nM.
